Reference: patent US20220402935A1, “HETEROCYCLIC COMPOUND” (FIMECS, INC., priority 2019, published 2022)
Counter-ions that a name gives are not always drawn.

Target: T1, IRAK-M (Homo sapiens, UniProt Q9Y616)
T1 sequence (Q9Y616 1-596): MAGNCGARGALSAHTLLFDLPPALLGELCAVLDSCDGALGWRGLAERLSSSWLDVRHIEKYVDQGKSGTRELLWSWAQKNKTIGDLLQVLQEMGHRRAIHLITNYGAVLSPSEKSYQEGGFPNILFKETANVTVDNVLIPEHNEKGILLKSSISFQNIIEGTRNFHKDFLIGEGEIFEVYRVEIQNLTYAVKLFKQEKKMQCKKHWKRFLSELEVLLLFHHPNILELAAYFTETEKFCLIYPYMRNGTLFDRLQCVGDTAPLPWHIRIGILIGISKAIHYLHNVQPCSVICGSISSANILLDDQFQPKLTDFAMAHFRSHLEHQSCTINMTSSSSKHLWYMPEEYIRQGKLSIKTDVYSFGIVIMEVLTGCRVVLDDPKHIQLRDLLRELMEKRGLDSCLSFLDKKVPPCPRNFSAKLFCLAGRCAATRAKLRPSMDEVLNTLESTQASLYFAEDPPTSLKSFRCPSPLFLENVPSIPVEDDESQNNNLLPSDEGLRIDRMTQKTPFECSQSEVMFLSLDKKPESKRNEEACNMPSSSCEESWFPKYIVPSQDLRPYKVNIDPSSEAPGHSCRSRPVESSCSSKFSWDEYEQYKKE
Assay: IRAK-M binding inhibitory activity (KINOMEscan active site-dependent competitive assay)
Design: purchased Eurofins Discover X
Conditions: concentration of the test compound 1 μM; first symbol of cell; read-out: IRAK-M binding inhibition activity % Ctrl
Protocol: IRAK-M binding inhibitory activity was evaluated using active site-dependent competitive assay KINOMEscan® provided by Eurofins Discover X (Goldstein, D. M. et al. High-throughput kinase profiling as a platform for drug discovery. Nat. Rev. Drug Discovery. 7, 391-397 (2008)). IRAK-M binding inhibitory activity of the test compound was evaluated. […] The “% Ctrl” is calculated by the following formula.
(test compound signal−positive control compound signal)/(negative control compound signal−positive control compound signal)×100
Negative control compound=DMSO (100 Ctrl)
Positive control compound=control compound (0%×Ctrl)

SMILES	remaining binding at 1 µM
C=CCOc1cc(C(C)N2CCC(Oc3ccnc4cc(C)sc34)CC2)on1 (racemic) [Ref. example 7, 3-(allyloxy)-5-(1-(4-((2-methylthieno[3,2-b]pyridin-7-yl)oxy)piperidin-1-yl)ethyl)isoxazole (racemate)]	< 25%
Cc1ncsc1-c1ccc(CNC(=O)[C@@H]2C[C@@H](O)CN2C(=O)[C@H](C(C)C)N2Cc3ccccc3C2=O)c(OCCOCCOCCOc2cc(CN3CCC(Oc4ccnc5ccsc45)CC3)on2)c1 [Example 62, (2S,4R)-4-hydroxy-1-((S)-3-methyl-2-(1-oxoisoindolin-2-yl)butanoyl)-N-(4-(4-methylthiazol-5-yl)-2-(2-(2-(2-((5-((4-(thieno[3,2-b]pyridin-7-yloxy)piperidin-1-yl)methyl)isoxazol-3-yl)oxy)ethoxy)ethoxy)ethoxy)benzyl)pyrrolidine-2-carboxamide]	50 to 75%
Cc1ncsc1-c1ccc(CNC(=O)[C@@H]2C[C@@H](O)CN2C(=O)[C@H](C(C)C)N2Cc3ccccc3C2=O)c(OCCOCCOCCOCCOc2cc(CN3CCC(Oc4ccnc5ccsc45)CC3)on2)c1 [Example 64, (2S,4R)-4-hydroxy-1-((S)-3-methyl-2-(1-oxoisoindolin-2-yl)butanoyl)-N-(4-(4-methylthiazol-5-yl)-2-(2-(2-(2-(2-((5-((4-(thieno[3,2-b]pyridin-7-yloxy)piperidin-1-yl)methyl)isoxazol-3-yl)oxy)ethoxy)ethoxy)ethoxy)ethoxy)benzyl)pyrrolidine-2-carboxamide]	≥ 75%
Oc1cc(CN2CCC(Oc3ccnc4ccsc34)CC2)on1 [Ref. example 4, 5-((4-(thieno[3,2-b]pyridin-7-yloxy)piperidin-1-yl)methyl)isoxazol-3-ol]	50 to 75%
C=CCOc1cc(C(C)N2CCC(Oc3ccnc4cc(C)sc34)CC2)on1 (stereo not drawn) [Ref. example 8, 3-(allyloxy)-5-(1-(4-((2-methylthieno[3,2-b]pyridin-7-yl)oxy)piperidin-1-yl)ethyl)isoxazole (enantiomer)]	< 25%
c1ccc(-c2cc3ncnc(NCc4cccnc4)c3s2)cc1 [Ref. example 16, 6-phenyl-N-(pyridin-3-ylmethyl)thieno[3,2-d]pyrimidin-4-amine]	50 to 75%
c1ccc(CCNc2ncnc3cc(-c4ccccc4)sc23)cc1 [Ref. example 17, N-phenethyl-6-phenylthieno[3,2-d]pyrimidin-4-amine]	≥ 75%
NC(=O)c1ccc(Nc2ncnc3ccsc23)cc1 [Ref. example 18, 4-(thieno[3,2-d]pyrimidin-4-ylamino)benzamide]	50 to 75%
c1ccc(OC2CCOC2)c(Nc2ncnc3ccsc23)c1 (stereo not drawn) [Ref. example 19, N-(2-((tetrahydrofuran-3-yl)oxy)phenyl)thieno[3,2-d]pyrimidin-4-amine]	50 to 75%
NC(=O)c1cccc(Nc2ncnc3ccsc23)c1 [Ref. example 20, 3-(thieno[3,2-d]pyrimidin-4-ylamino)benzamide]	50 to 75%

Further lines, results first:

remaining binding at 1 µM	SMILES
< 25%	Cc1ncsc1-c1ccc(CNC(=O)[C@@H]2C[C@@H](O)CN2C(=O)[C@H](C(C)C)N2Cc3ccccc3C2=O)c(OCCOCCOc2cc(CN3CCC(Oc4ccnc5ccsc45)CC3)on2)c1 [Example 63, (2S,4R)-4-hydroxy-1-((S)-3-methyl-2-(1-oxoisoindolin-2-yl)butanoyl)-N-(4-(4-methylthiazol-5-yl)-2-(2-(2-((5-((4-(thieno[3,2-b]pyridin-7-yloxy)piperidin-1-yl)methyl)isoxazol-3-yl)oxy)ethoxy)ethoxy)benzyl)pyrrolidine-2-carboxamide]
25 to 50%	Cc1ccc(NS(=O)(=O)c2ccc(CNC(=O)COCCOCCOc3cc(CN4CCC(Oc5ccnc6ccsc56)CC4)on3)cc2)c2[nH]cc(C#N)c12 [Example 68, N-(4-(N-(3-cyano-4-methyl-1H-indol-7-yl)sulfamoyl)benzyl)-2-(2-(2-((5-((4-(thieno[3,2-b]pyridin-7-yloxy)piperidin-1-yl)methyl)isoxazol-3-yl)oxy)ethoxy)ethoxy)acetamide]
25 to 50%	Cc1ccc(NS(=O)(=O)c2ccc(CNC(=O)COCCOCCOCCOc3cc(CN4CCC(Oc5ccnc6ccsc56)CC4)on3)cc2)c2[nH]cc(C#N)c12 [Example 69, N-(4-(N-(3-cyano-4-methyl-1H-indol-7-yl)sulfamoyl)benzyl)-2-(2-(2-(2-((5-((4-(thieno[3,2-b]pyridin-7-yloxy)piperidin-1-yl)methyl)isoxazol-3-yl)oxy)ethoxy)ethoxy)ethoxy)acetamide]
< 25%	Cc1ccc(NS(=O)(=O)c2ccc(CNC(=O)COCCOc3cc(CN4CCC(Oc5ccnc6ccsc56)CC4)on3)cc2)c2[nH]cc(C#N)c12 [Example 70, N-(4-(N-(3-cyano-4-methyl-1H-indol-7-yl)sulfamoyl)benzyl)-2-(2-((5-((4-(thieno[3,2-b]pyridin-7-yloxy)piperidin-1-yl)methyl)isoxazol-3-yl)oxy)ethoxy)acetamide]
< 25%	c1cc(OC2CCN(Cc3cc(OC[C@@H]4CCCN4)no3)CC2)c2sccc2n1 [Ref. example 10, (S)-3-(Pyrrolidin-2-ylmethoxy)-5-((4-(thieno[3,2-b]pyridin-7-yloxy)piperidin-1-yl)methyl)isoxazole trihydrochloride]
50 to 75%	NC(=O)c1ccc(Nc2ncnc3ccsc23)c(OC2CCOC2)c1 (stereo not drawn) [Ref. example 11, 3-((tetrahydrofuran-3-yl)oxy)-4-(thieno[3,2-d]pyrimidin-4-ylamino)benzamide]
≥ 75%	c1ccc(Nc2ncnc3cc(-c4ccccc4)sc23)cc1 [Ref. example 12, N,6-diphenylthieno[3,2-d]pyrimidin-4-amine]
≥ 75%	COc1ccccc1Nc1ncnc2cc(-c3ccccc3)sc12 [Ref. example 13, N-(2-methoxyphenyl)-6-phenylthieno[3,2-d]pyrimidin-4-amine]
25 to 50%	c1ccc(-c2cc3ncnc(NCC4CC4)c3s2)cc1 [Ref. example 14, N-(cyclopropylmethyl)-6-phenylthieno[3,2-d]pyrimidin-4-amine]
25 to 50%	c1ccc(-c2cc3ncnc(Nc4ccccn4)c3s2)cc1 [Ref. example 15, 6-phenyl-N-(pyridin-2-yl)thieno[3,2-d]pyrimidin-4-amine]

Same assay, conditions: second symbol of cell; read-out: IRAK-M binding inhibition IC50 value

SMILES	IC50
C=CCOc1cc(C(C)N2CCC(Oc3ccnc4ccsc34)CC2)on1 (single isomer, unassigned) [Ref. example 6, 3-(allyloxy)-5-(1-(4-(thieno[3,2-b]pyridin-7-yloxy)piperidin-1-yl)ethyl)isoxazole (enantiomer)]	0.1 to 0.3 µM
O=C1CCC(N2C(=O)c3cccc(OCCOCCOCCOc4cc(CN5CCC(Oc6ccnc7ccsc67)CC5)on4)c3C2=O)C(=O)N1 (stereo not drawn) [Example 65, 2-(2,6-dioxopiperidin-3-yl)-4-(2-(2-(2-((5-((4-(thieno[3,2-b]pyridin-7-yloxy)piperidin-1-yl)methyl)isoxazol-3-yl)oxy)ethoxy)ethoxy)ethoxy)isoindoline-1,3-dione]	0.3 to 1 µM
O=C1CCC(N2C(=O)c3cccc(OCCOCCOc4cc(CN5CCC(Oc6ccnc7ccsc67)CC5)on4)c3C2=O)C(=O)N1 (stereo not drawn) [Example 66, 2-(2,6-dioxopiperidin-3-yl)-4-(2-(2-((5-((4-(thieno[3,2-b]pyridin-7-yloxy)piperidin-1-yl)methyl)isoxazol-3-yl)oxy)ethoxy)ethoxy)isoindoline-1,3-dione]	0.1 to 0.3 µM
O=C1CCC(N2C(=O)c3cccc(OCCOCCOCCOCCOc4cc(CN5CCC(Oc6ccnc7ccsc67)CC5)on4)c3C2=O)C(=O)N1 (stereo not drawn) [Example 67, 2-(2,6-dioxopiperidin-3-yl)-4-(2-(2-(2-(2-((5-((4-(thieno[3,2-b]pyridin-7-yloxy)piperidin-1-yl)methyl)isoxazol-3-yl)oxy)ethoxy)ethoxy)ethoxy)ethoxy)isoindoline-1,3-dione]	0.1 to 0.3 µM
C=CCOc1cc(CN2CCC(Oc3ccnc4ccsc34)CC2)on1 [Ref. example 3]	0.1 to 0.3 µM

The remaining lines, values ahead:

IC50	SMILES
0.03 to 0.1 µM	C=CCOc1cc(C(C)N2CCC(Oc3ccnc4ccsc34)CC2)on1 (single isomer, unassigned) [Ref. example 5, 3-(allyloxy)-5-(1-(4-(thieno[3,2-b]pyridin-7-yloxy)piperidin-1-yl)ethyl)isoxazole (enantiomer)]
0.3 to 1 µM	Cc1ncsc1-c1ccc(CNC(=O)[C@@H]2C[C@@H](O)CN2C(=O)[C@@H](NC(=O)COCCOCCOCCOc2cc(CN3CCC(Oc4ccnc5ccsc45)CC3)on2)C(C)(C)C)cc1 [Example 61, (2S,4R)-1-((S)-2-(tert-butyl)-4-oxo-14-((5-((4-(thieno[3,2-b]pyridin-7-yloxy)piperidin-1-yl)methyl)isoxazol-3-yl)oxy)-6,9,12-trioxa-3-azatetradecanoyl)-4-hydroxy-N-(4-(4-methylthiazol-5-yl)benzyl)pyrrolidine-2-carboxamide]
